Entries after “also recorded” stand apart in the source; their conditions may differ.
Tests used:
[1] = Plasma bupivacaine level and toxicity during IV infusion; type: in vivo, Harlan Sprague-Dawley rats
Method: (§1) Intravenous drugs were delivered to awake, unrestrained rats by slow infusion using a syringe pump (Harvard apparatus 22). Intrathecal drugs were delivered to awake, briefly restrained rats in a volume of 10 μl, followed by 10 μl of vehicle flush, using a calibrated tubing extension with a 30-gauge adapter fitting the implanted intrathecal catheter, attached to a geared Hamilton 100 μl glass syringe. IT drug delivery was monitored by observing the advancement of a small air bubble down the tubing.
For bupivacaine assays, samples were obtained by withdrawing and discarding approximately 0.3 cc of blood from arterial cannulae, and then withdrawing samples of approximately 0.5 cc volume. These samples were centrifuged and the plasma supernatant was frozen at -20° C. until analysis.
Bupivacaine was extracted from the thawed samples by solid-phase extraction chromatography )Chen Y et al., Therapeut Drug Monitor 14:317-321 (1992)). Sep-Pak C-18 (300 mg) cartridges were pre-conditioned with 4 ml of methanol and then 4 ml water. […]
Bupivacaine was quantitated by capillary GC with nitrogen-phosphorus detection )Bjork M et al., Journal of Chromatography 533:229-234 (1990)). […] Split injections (1.5:1) were performed with a Hewlett Packard 7673A automatic sampler, and the chromatograms were recorded and analyzed with H-P Chemstation (MSDOS) software. […]

allodynia [2] = conditions: cited from earlier work; for activity as metabolite with regard to allodynia suppression, earlier application: application Ser. No. 08/422,377
allodynia [3] = assay: Tactile allodynia (paw withdrawal threshold, % MPE) in L5/L6 spinal nerve ligated rats, Example 3; type: in vivo, Harlan Sprague-Dawley rats; conditions: for effect on allodynia, IV (in words) / Emax at 20 mg/kg: 20 mg/kg; for Emax at 20 mg/kg: Rattus norvegicus, 1 h, IV, 3-OH L in DMSO (p=0.006 vs DMSO, N=4), MEGX over 60 minutes (P=NS vs saline), read-out: maximum effect on PWT (% MPE), IV
Method: Male Harlan Sprague-Dawley rats were used (100-200 g). Rats were housed 2-3 to a cage with corn cob bedding and Purina rat chow and water ad libitum, in a standard facility with a 12 h/12 h day/night cycle. After surgical procedures involving chronic indwelling catheter insertion, animals were housed singly to prevent catheter damage.
Rats were allowed to recover 5-7 days before further testing or surgeries.
The catheters were 9 cm in intrathecal length and terminated near the lumbar enlargement. The rostral 3 cm of catheter was tunneled under the skin to externalize between the ears. Rats with neurologic deficits were discarded.
For intravascular access, external jugular catheters were fashioned from PE-50 tubing and inserted into an external jugular vein under halothane/oxygen anesthesia. Arterial catheters were also fashioned from PE-50 with a small bouton 1 cm from the intravascular end for suture securing; they were inserted into a carotid artery, taking care to spare the surrounding nerves. All catheters were flushed with heparinized saline (10 U/ml) and tunneled subcutaneously to emerge at the posterior base of the neck, and capped when not in use.
Monoethylglycinexylidide (MEGX) and 3-hydroxy monoethyl-glycinexylidide (3-OH MEGX) were dissolved in physiologic saline; 3-hydroxylidocaine (3-OH L) was dissolved in DMSO for intravenous administration.
as §1
Rats were placed in a plastic cage with an open wire mesh bottom and allowed to accommodate for approximately fifteen minutes. […] In brief, von Frey hairs were sequentially applied using an up-and-down paradigm to the left mid-plantar hindpaw with sufficient force to cause slight filament buckling. Positive responses were noted if the paw was sharply withdrawn. […] Otherwise, PWT were calculated by noting the stimulus level at which the first change in behavior occurred, collecting four additional responses to the continued up-and-down oscillation of stimulus presentation around the response threshold, and interpolating the 50% response threshold. For some comparisons, raw thresholds were converted to percent of maximum possible effect (% MPE), designating pre-treatment PWT (baselines) as 0% effect, and assigning a cutoff value of 100% effect to thresholds ≥15 g: therefore, % MPE values near 100 indicate normal mechanical thresholds (i.e., at or near 15 g), whereas values near 0 indicate allodynia. The following equation was used to compute % MPE:
% MPE=new threshold(g)-baseline threshold(g)×100/ 15 grams--baseline
Plasma drug levels and PWT were correlated using linear regression. Serially measured PWT and % MPE were compared using repeated measures ANOVA with post-hoc testing.

[4] = Observation of motor dysfunction and overt behavior / side effects; type: in vivo, Sprague-Dawley rats; conditions: IT; for motor dysfunction, IT (in words): Example 3, lidocaine and MEGX 500 μg, 3-OH L 58 μg (highest dose soluble in vehicle)
Excerpt: Animals were also observed for the appearance of general motor dysfunction,as evidenced by inability to ambulate symmetrically and for any other overt signs of unusual activity.

[5] = system: sciatic nerve compound action potential; assay: Rat sciatic nerve compound action potential in vivo, direct application; set-up: species or system Harlan Sprague Dawley rats; conditions: for potency relative to lidocaine: compound action potential blockade; for blockade of sciatic nerve compound action potential (in words): direct application, lidocaine 2.5 mg, metabolites 5 mg, 10 min
Method: Male Harlan Sprague Dawley rats (300-350 g) were anesthetized with pentobarbital/diazepam. The sciatic nerves were sequentially and bilaterally exposed by sharp/blunt dissection from the popliteal region proximally. Electrodes were placed at the sciatic notch (stimulating), and the interossei (recording); a grounding electrode was applied remote from the field. Baseline compound action potential (CAP) (A alpha/beta) wave heights (mV) in response to stimulation 1× per minute were recorded for ten minutes to obtain a stable reference. One drug/vehicle solution was applied per nerve, at mid-nerve (mid-thigh) level, in a volume of 250 μl, and compound action potential wave height then was recorded 1× per minute for ten minutes after application.

mechanical allodynia = assay: Mechanical allodynia in rat model of peripheral neuropathy (L5/L6 spinal nerve ligation), intrathecal, Example 2; type: in vivo, Sprague-Dawley rats; conditions: 0.6 μmol intrathecal, pH 6.58
Method: Experiments carried out in support of the present invention were performed in a rat model of peripheral neuropathy detailed in Example 2. Briefly, in the model used, rats are subjected to a surgical procedure, described by Kim and Chung (1992), designed to reproducibly injure peripheral nerves (spinal nerves L5 and L6). These rats develop a hyperesthetic state, which can be measured using one or more paradigms known in the art. Here, allodynia was measured by stimulation of neuropathic rat hindlimb using wire hairs having graded degrees of stiffness.
[…]. Test solutions at pH 6.58 were administered intrathecally as described above. Mechanical allodynia was measured by pressing nylon filaments of varying diameters against the paw. Data are expressed in terms of 50% response threshold, which is the median buckling weight required to evoke paw withdrawal; the lower the stimulus level, the more severe the allodynia.
Male Sprague-Dawley rats (200-350 gm) were prepared with chronic lumbar intrathecal catheters inserted under halothane anesthesia (Yaksh and Rudy). Animals were placed in a prone position and the left paraspinal muscles were separated from the spinous processes at the L4 -S2 levels, as described by Kim et al. The left L5 and L6 nerve roots were exposed and tightly ligated with 6-0 surgical silk suture. The rats were allowed to recover from anesthesia. Allodynia was typically observed to occur beginning 1-2 days post surgery and continuing for as long as 45 days. For testing, animals were placed in plastic cubicles with open wire mesh bottoms. Compound dissolved in preservative-free saline solution was administered in a volume of 10 μl through the intrathecal catheter, followed by 10 μl saline to flush the catheter line. Animals were tested for allodynia at various time points after drug treatment, as described below.
To assess the threshold of a non-noxious stimulus required to produce a left hind paw withdrawal (allodynia), Von Frey hairs (ranging from 0.4-15 grams), were systematically applied to the surgically treated hind paw. Failure to evoke a response was cause to test the next stiffer hair. Evocation of a brisk withdrawal response was cause to test the next lower stimulus intensity. This paradigm was repeated according to a statistical method (Dixon, 1976) to define the 50% response threshold.
Data in FIG. 6 are expressed in terms of 50% response threshold, which is the median buckling weight required to evoke paw withdrawal; the lower the stimulus level, the more severe the allodynia. Allodynia thresholds, measured 30 minutes after injection, were plotted against dosage. Each point represents a value for a single animal.

CCCCN1CCCCC1C(=O)Nc1c(C)cccc1C (stereo not drawn) [bupivacaine]
toxicity (in words) [1]: evident toxicity as manifested by ataxia and lethargy; also recorded: Higher doses resulted in seizure
mean plasma level at seizure ([1]; N=4, unit not given): 7.4±0.7
effect of IV bupivacaine on allodynia, earlier literature (allodynia [2]; Biella G et al. 1992, centrally facilitated nociceptive processing): lack of effect of bupivacaine on centrally facilitated nociceptive processing
effect of intravenous bupivacaine on allodynia (allodynia [3]; IV infusion, 15 samples from 4 rats, P=0.11, linear regression): no effect on allodynia; also recorded: inactive against allodynia

CCN(CC)CC(=O)Nc1c(C)ccc(O)c1C [3-OH L, 3-hydroxylidocaine]
motor dysfunction, IT (in words) [4]: no motor dysfunction was seen
local anesthetic (sodium channel blocking) activity ([5]; FIG. 12 legend): weaker local anesthetic than lidocaine
potency relative to lidocaine [5]: 1/4
blockade of sciatic nerve compound action potential (in words) [5]: showed some activity
activity as metabolite with regard to allodynia suppression, earlier application (allodynia [2]): active metabolite with regard to allodynia suppression
MPE, IT 20 μg (allodynia [3]; IT, 20 (unit printed "l g")): 80.2±20%
MPE, IT 58 μg (allodynia [3]; IT, 58 (unit printed "l g")): 63±16%
effect on allodynia, IV (in words) (allodynia [3]; IV infusion): both potent and effective at suppressing allodynia
Emax at 20 mg/kg (allodynia [3]): 76%

CCNCC(=O)Nc1c(C)cccc1C [MEGX, Monoethylglycinexylidide]
duration of motor dysfunction (hindquarter flaccidity / weakness) ([4]; 500 μg): 5 to 10 min
motor dysfunction, IT (in words) [4]: transient motor dysfunction
motor block / motor effects (summary) ([4]; 3-hydroxy MEGX at effective anti-allodynia dose, MEGX in excess): motor blockade
potency relative to lidocaine [5]: approximately 1/3
blockade of sciatic nerve compound action potential (in words) [5]: showed some activity
activity as metabolite with regard to allodynia suppression, earlier application (allodynia [2]): not MEGX was an active metabolite with regard to allodynia suppression
suppression of allodynia after IT administration (summary) (allodynia [3]; IT): not MEGX, suppressed allodynia after IT administration
effect on allodynia / PWT, IT 500 μg (in words) (allodynia [3]; IT, 500 μg, after recovery of motor function): no effect on PWT
effect on allodynia, IV (in words) (allodynia [3]; IV infusion): no effect
Emax at 20 mg/kg (allodynia [3]): 28%

Cc1cccc(C)c1OCC(C)N (stereo not drawn) [mexiletine]
effect on mechanical allodynia (50% response threshold), 0.6 μmol (mechanical allodynia): did not block mechanical allodynia

— patent US6166085A, “Method of producing analgesia” (priority 1996, dated 2000)
